pIC50: −log10 of the molar value. Counter-ions that a name gives are not always drawn. Like-named read-outs stand apart in the source and are kept apart here.
Columns and labels:
[1] = target: PI3Kδ (p110δ/p85α) Recombinant Human Protein (Homo sapiens (Human), UniProt O00329); assay: PI3Kδ Scintillation Proximity Assay; assay type: biochemical
Outline: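 IC50 was fitted to percent solvent-control activity from SPA scintillation counts after WGA bead capture of 33P-labelled lipid product. Reaction: 120 min, room temperature, 3.4 nM p110δ/p85α, 20 μM PIP2, 2 μM ATP with tracer, MOPS pH 6.7 buffer containing MgCl2, DTT, CHAPS, 2% DMSO.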

[2] = target: PI3Kγ (p110γ) Recombinant Human Protein (Homo sapiens (Human), UniProt P48736); assay: PI3K-γ Scintillation Proximity Assay; assay type: biochemical; settings: read-out: PI3Kγ IC50
Outline: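 Radiometric SPA readout: […] bound to WGA beads after overnight shaking, IC50 derived from % activity of DMSO control. Reaction used human p110γ, 2 μM ATP, 20 μM PIP2, pH 6.7 MOPS buffer with MgCl2, DTT, CHAPS, 2% DMSO, room temperature.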

[3] = test system: Phosphorylated Ribosomal Protein S6 (RPS6); assay: THP-1 RPS6 ELISA Assay; assay type: cell-based, Human; settings: THP-1 cells, read-out: PI3Kγ_THP1_RPS6_ELISA IC50
Outline: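 IC50 values come from a curve of percent inhibition against log compound concentration, using phospho-RPS6 ELISA (450 nm) on THP-1 lysates. Cells were serum-starved overnight, exposed to compound for 2 h at 37 °C, then challenged 15 min with 10 nM MCP-1.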

PI3Kδ (p110δ/p85α) Recombinant Human Protein, sequence (O00329 whole entry): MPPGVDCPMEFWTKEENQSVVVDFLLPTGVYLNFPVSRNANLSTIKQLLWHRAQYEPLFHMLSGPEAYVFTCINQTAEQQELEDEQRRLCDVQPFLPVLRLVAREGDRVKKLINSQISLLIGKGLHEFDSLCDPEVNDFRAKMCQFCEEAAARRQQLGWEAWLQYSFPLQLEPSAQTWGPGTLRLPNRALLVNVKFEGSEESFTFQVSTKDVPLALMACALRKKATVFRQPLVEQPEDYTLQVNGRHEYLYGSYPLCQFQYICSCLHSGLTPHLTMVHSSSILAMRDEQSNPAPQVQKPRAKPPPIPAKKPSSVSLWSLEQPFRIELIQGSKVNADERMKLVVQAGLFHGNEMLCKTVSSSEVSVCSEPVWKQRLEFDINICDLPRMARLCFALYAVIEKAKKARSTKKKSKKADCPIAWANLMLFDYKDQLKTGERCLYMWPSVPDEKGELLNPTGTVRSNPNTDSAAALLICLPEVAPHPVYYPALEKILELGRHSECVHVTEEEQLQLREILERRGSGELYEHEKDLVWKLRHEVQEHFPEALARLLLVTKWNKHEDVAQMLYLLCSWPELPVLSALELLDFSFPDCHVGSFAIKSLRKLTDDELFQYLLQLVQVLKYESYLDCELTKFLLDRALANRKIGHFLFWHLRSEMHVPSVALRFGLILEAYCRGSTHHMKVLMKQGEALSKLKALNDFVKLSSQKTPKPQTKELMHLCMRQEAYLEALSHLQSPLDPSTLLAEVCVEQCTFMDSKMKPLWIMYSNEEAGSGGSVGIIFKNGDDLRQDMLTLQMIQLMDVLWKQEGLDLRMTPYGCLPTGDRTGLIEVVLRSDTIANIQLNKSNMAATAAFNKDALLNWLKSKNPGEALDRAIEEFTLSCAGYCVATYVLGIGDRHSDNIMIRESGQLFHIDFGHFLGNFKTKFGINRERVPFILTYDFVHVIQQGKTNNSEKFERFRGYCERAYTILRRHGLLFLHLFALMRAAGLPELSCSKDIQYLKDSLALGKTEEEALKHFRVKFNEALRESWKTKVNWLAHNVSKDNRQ
PI3Kδ (p110δ/p85α) Recombinant Human Protein, sequence (P27986 whole entry partner): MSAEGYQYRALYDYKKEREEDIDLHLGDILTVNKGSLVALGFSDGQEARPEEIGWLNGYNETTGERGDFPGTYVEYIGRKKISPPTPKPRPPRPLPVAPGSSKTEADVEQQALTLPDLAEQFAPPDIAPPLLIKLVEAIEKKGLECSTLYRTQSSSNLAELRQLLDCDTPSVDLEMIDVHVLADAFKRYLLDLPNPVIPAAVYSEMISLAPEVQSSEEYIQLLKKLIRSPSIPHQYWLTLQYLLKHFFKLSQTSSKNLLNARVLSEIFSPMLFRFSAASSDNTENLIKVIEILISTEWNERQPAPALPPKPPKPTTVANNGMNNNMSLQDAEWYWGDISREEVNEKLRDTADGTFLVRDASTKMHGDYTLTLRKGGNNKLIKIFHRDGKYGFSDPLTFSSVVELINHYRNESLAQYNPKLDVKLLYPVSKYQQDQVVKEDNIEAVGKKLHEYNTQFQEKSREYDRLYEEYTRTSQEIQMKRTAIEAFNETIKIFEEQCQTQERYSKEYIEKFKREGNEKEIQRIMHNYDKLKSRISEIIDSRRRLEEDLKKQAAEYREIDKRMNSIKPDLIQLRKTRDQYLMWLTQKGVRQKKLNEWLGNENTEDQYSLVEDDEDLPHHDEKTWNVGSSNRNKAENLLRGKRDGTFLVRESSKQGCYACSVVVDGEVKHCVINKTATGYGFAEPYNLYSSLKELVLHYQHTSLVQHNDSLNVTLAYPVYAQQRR
PI3Kγ (p110γ) Recombinant Human Protein, sequence (P48736 whole entry): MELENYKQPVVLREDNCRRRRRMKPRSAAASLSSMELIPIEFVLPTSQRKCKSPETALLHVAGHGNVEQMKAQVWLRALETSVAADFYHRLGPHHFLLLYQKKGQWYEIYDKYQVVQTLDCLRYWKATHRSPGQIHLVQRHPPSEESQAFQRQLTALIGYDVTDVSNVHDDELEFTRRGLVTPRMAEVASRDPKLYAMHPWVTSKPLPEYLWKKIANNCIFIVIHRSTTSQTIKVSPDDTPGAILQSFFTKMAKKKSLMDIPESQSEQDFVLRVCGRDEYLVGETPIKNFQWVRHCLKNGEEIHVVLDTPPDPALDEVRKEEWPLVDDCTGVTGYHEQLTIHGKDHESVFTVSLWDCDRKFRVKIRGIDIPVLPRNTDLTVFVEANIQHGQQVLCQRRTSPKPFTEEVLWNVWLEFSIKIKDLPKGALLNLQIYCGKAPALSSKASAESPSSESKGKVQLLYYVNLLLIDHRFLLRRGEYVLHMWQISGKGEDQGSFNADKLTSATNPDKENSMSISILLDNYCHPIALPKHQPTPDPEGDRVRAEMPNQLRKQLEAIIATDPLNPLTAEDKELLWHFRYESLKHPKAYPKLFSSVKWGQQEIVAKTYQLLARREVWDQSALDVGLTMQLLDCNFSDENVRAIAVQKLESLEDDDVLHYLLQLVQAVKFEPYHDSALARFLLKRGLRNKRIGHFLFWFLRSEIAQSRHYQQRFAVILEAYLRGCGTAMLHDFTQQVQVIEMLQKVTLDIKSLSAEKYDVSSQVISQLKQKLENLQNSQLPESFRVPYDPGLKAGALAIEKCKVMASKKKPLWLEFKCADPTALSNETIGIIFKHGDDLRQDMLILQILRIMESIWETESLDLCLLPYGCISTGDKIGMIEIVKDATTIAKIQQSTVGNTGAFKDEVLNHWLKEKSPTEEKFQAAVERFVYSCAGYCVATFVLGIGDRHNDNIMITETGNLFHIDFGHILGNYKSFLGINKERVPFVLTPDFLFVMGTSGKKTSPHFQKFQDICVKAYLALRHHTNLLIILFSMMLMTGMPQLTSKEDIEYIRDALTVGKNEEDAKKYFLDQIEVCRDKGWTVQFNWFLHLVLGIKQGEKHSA

SMILES	pIC50 [1]	pIC50 [2]	pIC50 [3]	pIC50 ([3]; Homo sapiens)
Cc1ccc(S(=O)(=O)NC23CC(F)(C2)C3)cc1-c1cnc2c(N)nc(C(F)(F)F)nn12 [Example 333, 3-(4-Amino-2-(trifluoromethyl)imidazo[1,2-f][1,2,4]triazin-7-yl)-N-(3-fluorobicyclo[1.1.1]pentan-1-yl)-4-methylbenzenesulfonamide trifluoroacetate salt]	6.30 to 7.00	> 7.00	> 7.00	–
[2H]C([2H])([2H])c1ccc(S(=O)(=O)NC23CCC(C#N)(C2)C3)cc1-c1cnc2c(N)ncnn12 [Example 253, 3-(4-Aminoimidazo[2,1-f][1,2,4]triazin-7-yl)-N-(4-cyanobicyclo[2.1.1]hexan-1-yl)-4-(methyl-d3)benzenesulfonamide (crystalline free base)]	6.30 to 7.00	> 7.00	–	> 7.00
Cc1ccc(S(C)(=O)=O)cc1-c1cnc2c(N)nc(-c3ccc(C(F)F)cc3)cn12 [Example 475, 6-(4-(Difluoromethyl)phenyl)-3-(2-methyl-5-(methylsulfonyl)phenyl)imidazo[1,2-a]pyrazin-8-amine trifluoroacetate]	6.30 to 7.00	> 7.00	–	6.00 to 6.30
Cc1ccc(S(=O)(=O)NC23CC(N)(C2)C3)cc1-c1cnc2c(N)nc(C(F)(F)F)nn12 [Example 341, 3-(4-Amino-2-(trifluoromethyl)imidazo[1,2-f][1,2,4]triazin-7-yl)-N-(3-aminobicyclo[1.1.1]pentan-1-yl)-4-methylbenzenesulfonamide trifluoroacetate salt]	6.30 to 7.00	> 7.00	6.30 to 7.00	–
Cc1ccc(S(=O)(=O)NCC2(F)COC2)cc1-c1cnc2c(N)nc(C(F)(F)F)nn12 [Example 315, 3-(4-Amino-2-(trifluoromethyl)imidazo[1,2-f][1,2,4]triazin-7-yl)-N-((3-fluorooxetan-3-yl)methyl)-4-methylbenzenesulfonamide trifluoroacetate salt]	> 7.00	> 7.00	> 7.00	–
CNc1nc(-c2ccccc2F)cn2c(-c3cc(S(=O)(=O)N[C@H]4CC[C@H](O)CC4)ccc3C)cnc12 [Example 36, 3-[6-(2-Fluorophenyl)-8-(methylamino)imidazo[1,2-a]pyrazin-3-yl]-N-(trans-4-hydroxycyclohexyl)-4-methylbenzenesulfonamide trifluoroacetate]	> 7.00	> 7.00	–	> 7.00
[2H]C([2H])([2H])c1ccc(S(=O)(=O)NC23CC(CC#N)(C2)C3)cc1-c1cnc2c(N)ncnn12 [Example 371, trifluoroacetate salt]	6.30 to 7.00	> 7.00	–	6.30 to 7.00
Cc1ccc(S(=O)(=O)NC23CCC(CN4CCOCC4)(CC2)OC3)cc1-c1cnc2c(N)ncnn12 [Example 434, 3-(4-Aminoimidazo[1,2-f][1,2,4]triazin-7-yl)-4-methyl-N-(1-(morpholinomethyl)-2-oxabicyclo[2.2.2]octan-4-yl)benzenesulfonamide trifluoroacetate salt]	6.30 to 7.00	> 7.00	–	6.30 to 7.00
[2H]C([2H])([2H])c1ccc(S(=O)(=O)N[C@H]2CC[C@H](CC#N)OC2)cc1-c1cnc2c(N)nc(C(F)(F)F)cn12 [Example 406, 3-(8-amino-6-(trifluoromethyl)imidazo[1,2-a]pyrazin-3-yl)-N-((3S,6R)-6-(cyanomethyl)tetrahydro-2H-pyran-3-yl)-4-(methyl-d3)benzenesulfonamide]	> 7.00	> 7.00	–	> 7.00
C[C@]1(O)CC[C@H](NS(=O)(=O)c2cc(-c3cnc4c(N)nccn34)ccc2F)CC1 [Example 359, 5-(8-aminoimidazo[1,2-a]pyrazin-3-yl)-2-fluoro-N-((1r,4r)-4-hydroxy-4-methylcyclohexyl)benzenesulfonamide]	6.30 to 7.00	> 7.00	< 6.00	–
C[C@]1(O)CC[C@H](NS(=O)(=O)c2cc(-c3cnc4c(N)nc(-c5ccncc5F)cn34)ccc2F)CC1 [Example 422, 5-(8-amino-6-(3-fluoropyridin-4-yl)imidazo[1,2-a]pyrazin-3-yl)-2-fluoro-N-((1r,4r)-4-hydroxy-4-methylcyclohexyl)benzenesulfonamide]	> 7.00	> 7.00	> 7.00	–
Cc1nc(N)c2ncc(-c3cc(S(=O)(=O)NC45CC(C#N)(C4)C5)ccc3C)n2n1 [Example 270, 3-(4-Amino-2-methylimidazo[1,2-f][1,2,4]triazin-7-yl)-N-(3-cyanobicyclo[1.1.1]pentan-1-yl)-4-methylbenzenesulfonamide trifluoroacetate salt]	6.30 to 7.00	> 7.00	> 7.00	–
Cc1cn2c(-c3cc(S(=O)(=O)NC45CCC(C#N)(C4)C5)ccc3C)cnc2c(N)n1 [Example 263, 3-(8-Amino-6-methylimidazo[1,2-a]pyrazin-3-yl)-N-(4-cyanobicyclo[2.1.1]hexan-1-yl)-4-methylbenzenesulfonamide trifluoroacetate salt]	6.30 to 7.00	> 7.00	–	6.30 to 7.00

Second part, the molecule after the results:

pIC50 [1]	pIC50 [2]	pIC50 [3]	pIC50 ([3]; Homo sapiens)	SMILES
5.70 to 6.30	> 7.00	–	6.00 to 6.30	CC(=O)NC1CCN(S(=O)(=O)c2ccc(C)c(-c3cnc4c(N)ncnn34)c2)C1 (stereo not drawn) [Example 199, N-(1-((3-(4-Aminoimidazo[2,1-f][1,2,4]triazin-7-yl)-4-methylphenyl)sulfonyl)pyrrolidin-3-yl)acetamide]
6.30 to 7.00	> 7.00	–	< 6.00	Cc1ccc(S(=O)(=O)N[C@H]2CC[C@H](O)CC2)cc1-c1cnc2c(N)cc(-c3cnn(C)c3)cn12 [Example 8, 3-[8-Amino-6-(1-methyl-1H-pyrazol-4-yl)imidazo[1,2-a]pyridin-3-yl]-N-(trans-4-hydroxycyclohexyl)-4-methylbenzenesulfonamide bis(trifluoroacetate)]
5.70 to 6.30	> 7.00	–	6.00 to 6.30	Cc1ccc(S(=O)(=O)NC2(C#N)CC2)cc1-c1cnc2c(N)ncnn12 [Example 189, 3-(4-aminoimidazo[2,1-f][1,2,4]triazin-7-yl)-N-(1-cyanocyclopropyl)-4-methylbenzenesulfonamide]
6.30 to 7.00	> 7.00	–	6.30 to 7.00	[2H]C([2H])([2H])c1ccc(S(=O)(=O)N2CCCC(CO)C2)cc1-c1cnc2c(N)nc(C(F)(F)F)cn12 (stereo not drawn) [Example 409, (1-((3-(8-Amino-6-(trifluoromethyl)imidazo[1,2-a]pyrazin-3-yl)-4-(methyl-d3)phenyl)sulfonyl)piperidin-3-yl)methanol]
5.70 to 6.30	> 7.00	–	< 6.00	Cc1ccc(S(=O)(=O)N2CCC(O)CC2)cc1-c1cnc2c(N)nccn12 [Example 51, 1-{[3-(8-Aminoimidazo[1,2-a]pyrazin-3-yl)-4-methylphenyl]sulfonyl}piperidin-4-ol]
5.70 to 6.30	> 7.00	6.30 to 7.00	–	Cc1ccc(S(=O)(=O)NC23CC(F)(C2)C3)cc1-c1cnc2c(N)ncnn12 [Example 98, 3-(4-Aminoimidazo[1,2-f][1,2,4]triazin-7-yl)-N-(3-fluorobicyclo[1.1.1]pentan-1-yl)-4-methylbenzenesulfonamide trifluoroacetate salt]
